One assay has as its target T1, 15-LOX-1 (Homo sapiens, UniProt P16050).
T1 sequence (P16050 1-662): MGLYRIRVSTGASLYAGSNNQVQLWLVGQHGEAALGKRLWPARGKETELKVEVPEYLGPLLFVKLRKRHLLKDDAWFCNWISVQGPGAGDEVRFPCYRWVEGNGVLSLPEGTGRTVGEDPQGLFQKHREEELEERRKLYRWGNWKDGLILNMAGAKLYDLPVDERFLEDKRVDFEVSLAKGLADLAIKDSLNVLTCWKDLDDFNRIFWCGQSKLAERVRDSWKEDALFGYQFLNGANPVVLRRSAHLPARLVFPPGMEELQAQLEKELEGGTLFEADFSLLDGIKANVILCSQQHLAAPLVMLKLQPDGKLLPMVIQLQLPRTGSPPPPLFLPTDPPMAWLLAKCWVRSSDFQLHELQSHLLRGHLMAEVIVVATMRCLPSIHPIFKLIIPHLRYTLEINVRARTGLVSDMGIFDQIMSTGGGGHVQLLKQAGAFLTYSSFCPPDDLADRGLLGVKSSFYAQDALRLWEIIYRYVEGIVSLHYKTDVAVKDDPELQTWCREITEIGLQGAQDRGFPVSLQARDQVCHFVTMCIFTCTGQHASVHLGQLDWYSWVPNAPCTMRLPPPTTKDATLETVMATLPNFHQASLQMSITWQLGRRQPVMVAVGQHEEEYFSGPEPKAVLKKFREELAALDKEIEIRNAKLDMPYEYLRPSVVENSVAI
Put plainly: ABP-based ELISA assay with recombinant 15-LOX-1 (inhibition of Labelox B labeling). It is filed as biochemical. Details: His-tag (N); made in house; host or cells: E. coli BL21(DE3). The protocol: A549 cell lysate was treated with a serial dilution of the respective inhibitor. Subsequently, samples were labeled by treatment with 1 μM of Labelox B for 1 min. […] Data are mean±s.d., n≥3 independent experiments. […]
1.6. Immunoblotting Analysis […]
1.7. ABPP-based LOX inhibitor specificity validation
A549 cells were lysed by RIPA buffer supplemented with 1x PIC. After sonication and centrifugation, the supernatant was collected, and the protein concentration was determined by a Pierce BCA Protein Assay Kit (Thermo Fisher Scientific, USA). The lysates were then diluted with PBS to 300 ng/µl and stored in -20°C. To label endogenous LOXs with Labelox B under the competition condition, 180 µl diluted lysates were incubated with 200 µl different LOX inhibitor solution (in PBS) with desired concentrations for 18 min to inhibit LOXs activity. Later, 20 µl of a 20 µM Labelox B (in PBS) was added and incubated shortly for 2 min, followed by adding 50 µl of a 0.5 M EDTA to stop the labeling reaction. The reaction mixture was 450 µl in total. Inhibitors and Labelox B were absent in positive and […]
negative control, respectively. To detect the competition labeling of Labelox B among different LOXs, a high-binding 96-well plate (Greiner, #M4561) was coated with 5-LOX (#ab169755, Abcam), 12-LOX […]
(1:500 dilution in PBS) for overnight at 4°C. After washing triply with 0.05%PBST, the plate was blocked with 2% (w/v) BSA in PBST. Subsequently, 100 µl of each reaction mixture was added to the LOX-
For orientation: ELISA stands for enzyme-linked immunosorbent assay.

Another assay has as its system LOXs. Also on record: method as in PMID 17942241, PMID 16500106. As to conditions: redox inhibitor for LOXs; read-out: IC50 in vitro; cited from earlier work.
The next assay deals with T2, 12-LOX (Homo sapiens, UniProt P18054).
T2 construct: the endogenous LOXs were captured on an anti‐LOX antibody precoated 96‐well plate; endogenous in cells; host or cells: A549 cell lysate
T2 sequence (P18054 1-663): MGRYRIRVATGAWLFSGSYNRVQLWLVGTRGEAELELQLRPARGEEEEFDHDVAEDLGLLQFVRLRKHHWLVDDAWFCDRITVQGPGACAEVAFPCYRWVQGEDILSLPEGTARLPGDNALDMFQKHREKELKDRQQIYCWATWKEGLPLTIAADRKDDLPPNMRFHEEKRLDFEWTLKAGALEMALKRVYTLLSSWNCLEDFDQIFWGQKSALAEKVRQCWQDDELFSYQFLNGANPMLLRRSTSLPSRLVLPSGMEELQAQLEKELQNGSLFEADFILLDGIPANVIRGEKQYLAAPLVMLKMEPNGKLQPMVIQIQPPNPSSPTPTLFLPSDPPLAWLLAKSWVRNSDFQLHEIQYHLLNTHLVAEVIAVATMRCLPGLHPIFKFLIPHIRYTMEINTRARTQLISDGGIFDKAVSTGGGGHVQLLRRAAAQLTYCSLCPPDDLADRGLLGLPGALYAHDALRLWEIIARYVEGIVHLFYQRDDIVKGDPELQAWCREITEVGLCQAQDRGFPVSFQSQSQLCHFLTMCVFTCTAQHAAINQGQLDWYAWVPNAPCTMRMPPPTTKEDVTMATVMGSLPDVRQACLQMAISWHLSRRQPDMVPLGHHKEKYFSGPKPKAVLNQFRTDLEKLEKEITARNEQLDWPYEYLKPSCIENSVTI
As to the kind of experiment: Sandwich ELISA of Labelox B biotinylation in A549 cell lysate, 12-LOX capture. In kind it is biochemical. The note with it: HRP-streptavidin detection, read-out: EC50 of labeling. The protocol:
Labelox B efficiently labels endogenous LOXs. Lipoxygenase labeling by Labelox B was investigated using cell‐based assays. As a first step, labeling efficiency was estimated in intact RAW 264.7 macrophage cells that were treated with Labelox B in concentrations ranging between 1 μM and 100 μM with incubation times between 0.5 h and 6 h. […] As a next step, a sandwich ELISA assay was established in order to find proof that probe Labelox B is indeed labeling proteins with lipoxygenase enzyme activity. Towards this aim, A549 cell lysates were treated with sub‐micromolar to micromolar concentrations of Labelox B. Subsequently, the endogenous LOXs were captured on an anti‐LOX antibody precoated 96‐well plate followed by detection of Labelox B mediated biotinylation using HRP‐conjugated streptavidin. […] Furthermore, probe Labelox B enabled visualization of localized LOX activity in living cells (Figure 2 c). […] The fluorescence intensity increased with increasing doses of Labelox B and labeling was observed throughout the cells in the cytoplasm and the nucleus of A549.
Figure 2 Labelox B labels endogenous LOXs in a dose‐ and time‐dependent manner. a, b) Western blot analysis of Labelox B labeled LOXs in intact RAW 264.7 for indicated doses and time points. […] The pictures were captured by a Leica DM4000b fluorescence microscope.

Values joined by “and” are separate entries in the source; they are usually repeats but may differ in a detail not shown here. Equal entries are not always repeated.

With `O=c1cc(-c2ccccc2)oc2cc(O)c(O)c(O)c12` [Baicalein], the Hill slope result at 15-LOX-1 was “lower than 1”. Besides, the IC50 in the assay on LOXs was less than 4 µM.

For the molecule `CCCCCC#CCC#CCOC(=O)CCCC[C@@H]1SC[C@@H]2NC(=O)N[C@@H]21` [Labelox B (3)], on 12-LOX, the EC50 is roughly 3.5 µM.

As for `c1ccc2c(c1)SCc1c-2[nH]c2ccccc12` [PD146176], on 15-LOX-1, the Hill slope entry was “around 1”. Also, the IC50 on 15-LOX-1 (read-out: IC50 for attenuation of Labelox B mediated labeling) was ~15 µM and 15 µM.

A word on the IC50: it is the point on the concentration scale where inhibition reaches its midpoint. Usually EC50 stands for the midpoint of the concentration-response curve.

The values above are taken from PMC8518382, “Identification of a Bromodomain‐like Region in 15‐Lipoxygenase‐1 Explains Its Nuclear Localization” (Angewandte Chemie (International Ed. in English), 2021).
